Data: US20080317807A1, “STRONTIUM FORTIFIED CALCIUM NANO-AND MICROPARTICLE COMPOSITIONS AND METHODS OF MAKING AND USING THEREOF” (The University of Hong Kong, priority 2007, published 2008)

Assays:
rats = details: cited from earlier work
[1] = test system: osteoblast differentiation; test: Osteoblast differentiation by ALP staining and ALP quantification; type: cell-based
Source text: It was also observed that the administration of strontium promoted osteoblast differentiation. This was confirmed via alkaline phosphatase (ALP) staining and ALP quantification.

mature osteoblast = details: Strontium concentrations of 10^−3M or higher; cited from earlier work
[2] = test system: fibroblast and pre-osteoblastic enriched cell populations; details: cited from earlier work
[3] = test system: osteoporotic mice model induced by parathyroid hormone; details: cited from earlier work

| SMILES | Increase of alkaline phosphatase activities, female rats (rats; female rats) [%] | Increase of alkaline phosphatase activities, male rats (rats; male rats) [%] | Plasma IGF-1, males (rats; males, after 104 weeks of treatment) | Matrix mineralization of osteoprogenitors [1] | Osteoblast differentiation (ALP staining and quantification) ([1]; particularly after 14 days) | Increase of collagen and non-collagenic protein synthesis (mature osteoblast) [%] | Increase of DNA synthesis [2] | Bone resorption [3] |
| --- | --- | --- | --- | --- | --- | --- | --- | --- |
| [Sr+2] [strontium] | 56 | 53 | Significant increase | increased matrix mineralization | increased osteoblast differentiation | 34 |  |  |
| N#Cc1c(N(CC(=O)[O-])CC(=O)[O-])sc(C(=O)[O-])c1CC(=O)[O-].[Sr+2].[Sr+2] [strontium ranelate] |  |  |  |  |  |  | three- to four | inhibited bone resorption |
